Data on five compounds can be found in patent publication US20150218516A1, “COMPOSITIONS AND METHODS FOR ENHANCING IMMUNE RESPONSES MEDIATED BY ANTIGEN-PRESENTING CELLS” (The Board of Regents of the University of Nebraska, priority 2007, published 2015).

Non-standard residues stand in square brackets, D forms with d. Residues, ends and D or L forms follow the SMILES beside them. A value given as a limit tells only on which side of the number the result lay.

The subject of series [1] is SKRC-52. The settings on record: cord blood T lymphocytes, dendritic cells exposed to the peptide. As for the experimental part:
(§1) An exemplary in vitro cytotoxicity assay comprises the following steps. Antigen presenting cells, such as dendritic cells, were obtained from bone marrow or blood. Dendritic cells were preferentially differentiated in culture through the addition of IL-4, GM-CSF, and TNFα for 7-10 days. Dendritic cells were then pulsed with peptides for 18 hours. MNCs were also isolated from spleens or blood (e.g., cord or peripheral) and cultured in IL-2 and GM-CSF for 7-10 days for enhanced lymphocyte proliferation. The pulsed dendritic cells were then co-cultured with the lymphocyte-enriched MNCs at a 1:10 ratio for 4 days. Lymphocyte-enriched MNC effector cells were then co-cultured with tumor target cells labeled with the bioactive fluorescent dye Calcein AM for 4 hours. Lysed cells were detected by photometrically measuring the released fluorescent dye.
(§2) Certain renal cell carcinomas express the tumor antigen G250. […] The fusion peptide was administered to APCs which were subsequently presented for 4 days to a lymphocyte-enriched population from cord blood as described hereinabove in Example 6.

Series [2] concerns SKRC-1. Conditions: low G250 expression; cord blood T lymphocytes. As for the experimental part: as §1, §2
For series [3], the target named is T1, C5aRs on Human PMNs (Homo sapiens, UniProt P21730).
T1 construct: endogenous in cells; host or cells: intact human PMNs (polymorphonuclear leukocytes)
T1 sequence (P21730 1-350): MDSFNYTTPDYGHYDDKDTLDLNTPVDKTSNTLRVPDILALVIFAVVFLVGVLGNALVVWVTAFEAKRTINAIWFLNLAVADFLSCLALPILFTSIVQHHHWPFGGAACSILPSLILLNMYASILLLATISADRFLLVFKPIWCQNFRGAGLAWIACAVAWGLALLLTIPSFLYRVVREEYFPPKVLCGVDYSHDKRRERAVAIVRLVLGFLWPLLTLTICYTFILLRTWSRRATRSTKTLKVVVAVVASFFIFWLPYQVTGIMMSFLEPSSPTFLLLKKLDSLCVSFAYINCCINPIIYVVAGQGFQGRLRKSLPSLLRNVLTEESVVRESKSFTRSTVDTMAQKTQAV
Briefly: Competition assay with 125I-C5a for C5aR binding on intact human PMNs. How it is done:
C5a-like agonistic activity was assessed by the ability of the peptides to induce smooth muscle contraction of human umbilical artery and MPO release from human PMNs according to previously published methods (Sanderson et al., 1994, supra; Sanderson et al., J. Med. Chem. 38, 3669, 1995; Finch et al., J. Med. Chem. 40, 877, 1997). Full concentration-response curves were generated for individual peptides and natural C5a in each assay and the EC50 values (the concentration of peptide producing 50% of the maximal response to each peptide) were calculated. pD2 transforms [−log EC50 (M)] were calculated for each concentration-response curve and reported as the mean±SE. Peptide binding affinity to the C5aR was evaluated on intact human PMNs by a competition assay using ^125I-C5a according to previously described methods (Sanderson et al., 1995, supra; Finch et al., 1997, supra). Statistical analysis of the values obtained from pharmacologic assays was performed using one-way analysis of variance (ANOVA).

The test system of series [4] is human umbilical artery. Briefly: Smooth muscle contraction of human umbilical artery. The series is classed as cell-based. The settings on record: for EC50: concentration resulting in 50% maximum contraction; for pD2 ± SE: −log EC50 (M), mean ± SE, n=3. As for the experimental part:
(§3) Statistical analysis of the values obtained from pharmacologic assays was performed using one-way analysis of variance (ANOVA).

Series [5] deals with human PMNs. Briefly: MPO release from human PMNs. The series is classed as cell-based. The settings on record: for pD2 ± SE: −log EC50 (M), mean ± SE, n=3. As for the experimental part: as §3
Series [6] deals with κR(33-52) peptide. Briefly: Peptide-specific ELISA of serum and protein A-purified antibody from immunized rabbits. The series is classed as in vivo. As for the experimental part:
Rabbits were immunized s.c. with 500 μg of […]aR (SEQ ID NO: 10) construct in complete Freund's adjuvant (GIBCO, Grand Island, N.Y.) on day 0 followed by booster injections on days 30 and 60 in incomplete Freund's adjuvant. Serum was collected starting 75 days after the initial immunization.
The presence of anti-peptide antibody was determined by using a peptide specific ELISA utilizing the free κR(33-52) peptide as previously described (Morgan et al. (1993) J. Immunol., 151: 377). Anti-κR(33-52) and normal rabbit γ-globulin (RGG) were purified by protein A Sepharose chromatography (Sigma) (Morgan et al. (1993) J. Immunol., 151: 377) prior to use.

The EC50 is the concentration at which the effect is half-maximal.

Consider `CSCC[C@H](NC(=O)[C@@H]1CCCN1C(=O)[C@H](CCCCN)NC(=O)[C@H](Cc1ccccc1)NC(=O)[C@H](CO)NC(=O)[C@H](Cc1ccc(O)cc1)NC(=O)[C@H](CCCNC(=N)N)NC(=O)[C@H](CCCNC(=N)N)NC(=O)[C@@H](NC(=O)[C@H](CCCNC(=N)N)NC(=O)[C@H](C)NC(=O)[C@H](Cc1ccccc1)NC(=O)[C@H](C)NC(=O)[C@@H](NC(=O)[C@H](CO)NC(=O)[C@H](CC(C)C)NC(=O)[C@@H](N)Cc1c[nH]cn1)[C@@H](C)O)C(C)C)C(=O)N1CCC[C@H]1C(=O)N[C@@H](CC(C)C)C(=O)N[C@H](C)C(=O)N[C@@H](CCCNC(=N)N)C(=O)O` (H-HLSTAFARVRRYSFKPMPL[dA]R-OH), for which the “cytotoxicity against SKRC-52 (in words)” value in series [1] is recorded as “significant cytotoxicity”. Besides, in series [2], the “cytotoxicity against SKRC-1 (in words)” value was “exhibited cytotoxicity”.
Take `CSCC[C@H](NC(=O)[C@@H]1CCCN1C(=O)[C@H](CCCCN)NC(=O)[C@H](Cc1ccccc1)NC(=O)[C@H](CO)NC(=O)[C@H](Cc1ccc(O)cc1)NC(=O)[C@@H](NC(=O)[C@H](CCCNC(=N)N)NC(=O)[C@H](C)NC(=O)[C@H](Cc1ccccc1)NC(=O)[C@H](C)NC(=O)[C@@H](NC(=O)[C@H](CO)NC(=O)[C@H](CC(C)C)NC(=O)[C@@H](N)Cc1c[nH]cn1)[C@@H](C)O)C(C)C)C(=O)N1CCC[C@H]1C(=O)N[C@@H](CC(C)C)C(=O)N[C@H](C)C(=O)N[C@@H](CCCNC(=N)N)C(=O)O` (H-HLSTAFARVYSFKPMPL[dA]R-OH): the “cytotoxicity against SKRC-52 (in words)” value in series [1] is recorded as “significant cytotoxicity”. Besides, the “cytotoxicity against SKRC-1 (in words)” value in series [2] is recorded as “exhibited cytotoxicity”.
`CC[C@H](C)[C@H](N)C(=O)N1CCC[C@H]1C(=O)N[C@@H](CCC(N)=O)C(=O)N[C@@H](CO)C(=O)N[C@@H](CC(C)C)C(=O)N[C@@H](CC(=O)O)C(=O)N[C@@H](CO)C(=O)N[C@@H](Cc1c[nH]c2ccccc12)C(=O)N[C@@H](Cc1c[nH]c2ccccc12)C(=O)N[C@H](C(=O)N[C@@H](CO)C(=O)N[C@@H](CC(C)C)C(=O)N[C@@H](CCCNC(=N)N)C(=O)N[C@@H](CCCNC(=N)N)C(=O)N[C@@H](Cc1ccc(O)cc1)C(=O)N[C@@H](CO)C(=O)N[C@@H](Cc1ccccc1)C(=O)N[C@@H](CCCCN)C(=O)N1CCC[C@H]1C(=O)N[C@@H](CCSC)C(=O)N1CCC[C@H]1C(=O)N[C@@H](CC(C)C)C(=O)N[C@H](C)C(=O)N[C@@H](CCCNC(=N)N)C(=O)NCC(=O)O)[C@@H](C)O` (H-IPQSLDSWWTSLRRYSFKPMPL[dA]RG-OH): the “binding to the C5aR (in words)” value in series [3] was “significantly less affinity”. In addition, in series [4], the “potency in umbilical artery contraction (in words)” value is “significantly less potent”, the EC50 came to 6.78 µM and the “pD2 ± SE” value amounted to 5.17 ± 0.13. In series [5], the “MPO release from PMNs (in words)” value was “unable to induce a full response” and the “pD2 ± SE” value is on record as 5.59 ± 0.28. Besides, a half-maximal effect in series [5] (50% maximum release of myeloperoxidase) (EC50) was put at 2.56 µM.
As for FPGWAEPDSNGSAGSEDAQLYSFKPMPLaR, the “antibody concentration at which binding to free κR(33-52) was detectable” value in series [6] (protein A-purified antibody from immunized rabbits) is “less than 0.1 ng/ml”. Further, the ED50 titer in series [6] (protein A-purified antibody, multiple bleedings) lay in the range of 1 to 10 ng/mL. Further, the “serum titer against free κR(33-52) peptide” value in series [6] (rabbits, 500 μg s.c. in Freund's adjuvant) was “approximately 10^5”.
Consider `CC[C@H](C)[C@H](NC(=O)[C@H](CCCNC(=N)N)NC(=O)[C@H](CCCNC(=N)N)NC(=O)[C@H](CCCNC(=N)N)NC(=O)[C@@H](C)NC(=O)[C@H](CC(C)C)NC(=O)[C@@H]1CCCN1C(=O)[C@H](CCSC)NC(=O)[C@@H]1CCCN1C(=O)[C@H](CCCCN)NC(=O)[C@H](Cc1ccccc1)NC(=O)[C@H](CO)NC(=O)[C@@H](N)Cc1ccc(O)cc1)C(=O)N1CCC[C@H]1C(=O)N[C@@H](CCC(N)=O)C(=O)N[C@@H](CO)C(=O)N[C@@H](CC(C)C)C(=O)N[C@@H](CC(=O)O)C(=O)N[C@@H](CO)C(=O)N[C@@H](Cc1c[nH]c2ccccc12)C(=O)N[C@@H](Cc1c[nH]c2ccccc12)C(=O)N[C@H](C(=O)N[C@@H](CO)C(=O)N[C@@H](CC(C)C)C(=O)O)[C@@H](C)O`, for which the “binding to the C5aR (in words)” value in series [3] is listed as “bound poorly”. Besides, in series [4], the “potency in umbilical artery contraction (in words)” value was “significantly less potent”, the 50% effective concentration (EC50) stood at 39.4 µM and the “pD2 ± SE” value amounted to 4.41 ± 0.06. In series [5], the “MPO release from PMNs (in words)” value is “inactive” and the “pD2 ± SE” value was above 3.
